Patent US7378090B2, “Alleviation of the memory deficits and memory components of psychiatric dysfunctions by altering atypical PKM activity” (The Research Foundation of State University of New York, priority 2001, dated 2008)
“Also recorded” adds a separate entry of the source.

Assays:
[1] = test system: Drosophila; assay: Olfactory-avoidance classical (Pavlovian) conditioning, memory after training; type: in vivo; conditions: for 24-h memory after massed training: wild-type flies fed 25, 50 or 100 μM chelerythrine in sucrose for 3 h, three cycles of massed training
Text: In Drosophila, the best characterized assay for associative learning and memory is an odor-avoidance behavioral task (T. Tully, et al. J. Comp. Physiol. A157, 263-277 (1985) incorporated herein by reference). This classical (Pavlovian) conditioning involves exposing the flies to two odors (the conditioned stimuli, or CS), one at a time, in succession. During one of these odor exposures (the CS+), the flies are simultaneously subjected to electric shock (the unconditioned stimulus, or US), whereas exposure to the other odor (the CS−) lacks this negative reinforcement. Following training, the flies are then placed at a ‘choice point’, where the odors come from opposite directions, and expected to decide which odor to avoid. By convention, learning is defined as the fly's performance when testing occurs immediately after training. A single training trial produces strong learning: a typical response is that >90% of the flies avoid the CS+. Performance of wild-type flies from this single-cycle training decays over a roughly 24-hour period until flies once again distribute evenly between the two odors. Flies can also form long-lasting associative olfactory memories, but normally this requires repetitive training regimens.
Pavlovian learning and memory in Drosophila. To assess learning and memory in Drosophila, an olfactory-avoidance classical (Pavlovian) conditioning protocol was used. […] The performance index (PI) was calculated by subtracting the number of flies making the incorrect choice from those making the correct one, dividing by the total number of flies, and multiplying by 100. To avoid odor-avoidance biases, the PI of each single n was calculated by taking an average performance of two groups of flies, one group trained with the CS+ being OCT, the other with the CS+ being MCH. […]
(§1) A 4% (wt/vol) sucrose solution was used as a vehicle for the chelerythrine feeding. […] Feeding was monitored by placing 1/50 volume of green food coloring into the solutions, which could then be seen in the abdomens of flies after eating. […]

[2] = test system: CA1 pyramidal cells; conditions: sustained application of low concentrations; cited from earlier work
[3] = test system: Drosophila; assay: Olfactory-avoidance conditioning, learning (tested immediately after single-cycle training); type: in vivo; conditions: wild-type flies fed 100 μM chelerythrine for 3 h
Text: In Drosophila, the best characterized assay for associative learning and memory is an odor-avoidance behavioral task (T. Tully, et al. J. Comp. Physiol. A157, 263-277 (1985) incorporated herein by reference). This classical (Pavlovian) conditioning involves exposing the flies to two odors (the conditioned stimuli, or CS), one at a time, in succession. During one of these odor exposures (the CS+), the flies are simultaneously subjected to electric shock (the unconditioned stimulus, or US), whereas exposure to the other odor (the CS−) lacks this negative reinforcement. […]
Pavlovian learning and memory in Drosophila. […] The performance index (PI) was calculated by subtracting the number of flies making the incorrect choice from those making the correct one, dividing by the total number of flies, and multiplying by 100. To avoid odor-avoidance biases, the PI of each single n was calculated by taking an average performance of two groups of flies, one group trained with the CS+ being OCT, the other with the CS+ being MCH.
as §1

[4] = target: T1, PKMζ (Homo sapiens, UniProt Q05513); conditions: cited from earlier work
T1 sequence (Q05513 1-409 isoform Q05513-2): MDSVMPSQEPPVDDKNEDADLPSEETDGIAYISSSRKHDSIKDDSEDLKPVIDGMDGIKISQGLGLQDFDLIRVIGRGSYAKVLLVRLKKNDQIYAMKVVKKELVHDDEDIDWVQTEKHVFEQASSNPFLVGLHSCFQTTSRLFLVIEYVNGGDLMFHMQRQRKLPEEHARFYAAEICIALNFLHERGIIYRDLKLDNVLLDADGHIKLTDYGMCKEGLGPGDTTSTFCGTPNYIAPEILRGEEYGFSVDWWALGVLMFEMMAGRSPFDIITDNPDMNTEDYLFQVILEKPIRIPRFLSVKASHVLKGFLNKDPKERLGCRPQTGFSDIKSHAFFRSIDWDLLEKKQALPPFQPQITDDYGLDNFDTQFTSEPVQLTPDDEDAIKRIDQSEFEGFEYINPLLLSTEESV

[5] = test system: Drosophila; conditions: cited from earlier work

Molecule: COc1ccc2c(c[n+](C)c3c4cc5c(cc4ccc23)OCO5)c1OC [chelerythrine]
- 24-h memory after massed training [1]: inhibited 24-hour memory formation in a dose-dependent manner
- 24-h memory after massed training ([1]; listed as Chelerythrine): inhibits 24-h memory after massed training in a dose-dependent manner
- LTP maintenance [2]: abolished
- learning [3]: not different; also recorded: unaffected
- inhibition of other PKC isotypes ([4]; higher concentrations): inhibits other PKC isotypes at higher concentrations
- inhibition of PKMζ ([4]; low concentrations): selectively inhibit PKMζ at low concentrations

Molecule: C[C@@H]1C[C@@H]([C@H](O)CC2CC(=O)NC(=O)C2)C(=O)[C@@H](C)C1 [cycloheximide]
- anesthesia-resistant memory (ARM) ([5]; massed or spaced training): insensitive
- memory after spaced training of radish mutants ([5]; radish mutants): completely blocked
- long-term memory (LTM) ([5]; spaced training): blocked

B1: FL-MaPKCζ: full-length (FL) mouse atypical PKCζ expressed from heat-shock transgene (protein, UniProt Q02956 1-592, looked up)
chain: MPSRTDPKMDRSGGRVRLKAHYGGDILITSVDAMTTFKDLCEEVRDMCGLHQQHPLTLKWVDSEGDPCTVSSQMELEEAFRLVCQGRDEVLIIHVFPSIPEQPGMPCPGEDKSIYRRGARRWRKLYRANGHLFQAKRFNRGAYCGQCSERIWGLSRQGYRCINCKLLVHKRCHVLVPLTCRRHMDSVMPSQEPPVDDKNDGVDLPSEETDGIAYISSSRKHDNIKDDSEDLKPVIDGVDGIKISQGLGLQDFDLIRVIGRGSYAKVLLVRLKKNDQIYAMKVVKKELVHDDEDIDWVQTEKHVFEQASSNPFLVGLHSCFQTTSRLFLVIEYVNGGDLMFHMQRQRKLPEEHARFYAAEICIALNFLHERGIIYRDLKLDNVLLDADGHIKLTDYGMCKEGLGPGDTTSTFCGTPNYIAPEILRGEEYGFSVDWWALGVLMFEMMAGRSPFDIITDNPDMNTEDYLFQVILEKPIRIPRFLSVKASHVLKGFLNKDPKERLGCRPQTGFSDIKSHAFFRSIDWDLLEKKQTLPPFQPQITDDYGLDNFDTQFTSEPVQLTPDDEDVIKRIDQSEFEGFEYINPLLLSAEESV
modifications: full-length
notes: full-length (FL) mouse atypical PKCζ expressed from heat-shock transgene
- 24-hour memory after single-cycle training ([1]; transgene induced by 30-min 32° C. heat shock after training): not observed
